Experimental findings from patent EP1678287B1, “DISPENSER CONTAINING LIQUID BLEACHING COMPOSITION” (Reckitt Benckiser (UK) Limited, priority 2003, dated 2005) are described below.

This data set can be described thus: Storage stability of MMAM in an aqueous hydrogen peroxide composition with the surfactant under test. The class given is physicochemical. To be noted: 2 weight % Dowanol PnB added to the compositions of Example 1. The protocol: In this example, a number of surfactants were tested for their ability to stabilise methyl morpholinium acetonitrile methylsulphate (MMAM) in the presence of hydrogen peroxide.
The surfactant under test was added to an aqueous composition containing 1 weight % H2O2 and 1.1 weight % MMAM (1.7 weight % Sokalan BM) The active amount of surfactant in the composition was 1 weight %. In a control sample, no surfactant was added.

Structures are written as SMILES.

As for `CCCCOCC(C)O` (stereo not shown) [Dowanol PnB, n-butyl monoether of propylene glycol], the “effect of solvent on stability” value is on record as “did not have a significant effect on stability”.
